Columns and labels:
[1] = Study of effect on skin temperature (smelling of test substance, body temperature logger); type: in vivo, human; conditions: for skin temperatures of the fingers: one person, vapor inhaled 3 min from impregnated cotton piece under the nose, 25° C., humidity 50%, FIG. 1; for skin temperatures of the cheeks / skin temperatures of the toes: smell taken with the nose, not illustrated by data
Experimental: The skin temperature of fingers was measured by use of 8ch Body Temperature Logger (supplied by Nikkiso-Therm Co., Ltd.), and a change in skin temperature due to smelling of a test substance was investigated. The effect on the peripheral skin temperature was thus studied. A solvent extract of a common jasmine (Jasminum officinale) belonging to the Jasminum genus in the Oleaceae family was used as a control, and the evaluation was made in the same manner.
A person was employed as a subject, and the test was made in a constant temperature and humidity room at a temperature of 25° C. and a humidity of 50%.
The subject was seated on an easy chair and allowed to take a rest for 30 minutes. […] The change in peripheral skin temperature was evaluated by use of a value (T value) obtained by subtracting a mean value of the skin temperatures at the two sites of the chest from the mean value of the skin temperatures at the two fingertip sites.
One sequence of measurement tests was composed of (A) a rest for three minutes, (B) attaching of an odorless cotton piece under the nose for three minutes, (C) a rest for three minutes, (D) attaching of a test sample-impregnated cotton piece under the nose for three minutes, (E) a rest for three minutes, (F) attaching of an odorless cotton piece under the nose for three minutes, and (G) a rest for three minutes. The skin temperature was measured successively during the one sequence, and the T values were calculated.
The T values obtained at the times of (B) and (F), at each of which the odorless cotton piece was attached, were taken as the controls and were compared with the T value obtained at the time of (D), at which the vapor of the test sample was inhaled. The effect of each substance on the skin temperature was thus investigated. Specifically, the formula shown below was utilized.
Skin temperature change (° C.)=T value (D)−(mean value of T value (B) and T value (F))

sympathetic nerve = test: Sympathetic nerve suppressing effect (confirmed by the inventors, no method given); conditions: statement without data
[2] = Study of effect on skin blood circulation (laser Doppler flow-meter, smelling of test sample); type: in vivo, human; conditions: general statement of the inventors' findings; no data shown for substances other than the Arabian jasmine extract
Experimental: The skin blood circulation rate of fingers was measured by use of the laser Doppler flow-meter (ADVANCE LASER FLOW-METER ALF21), and the effect of the Arabian jasmine extract on the skin blood circulation was evaluated.
Six persons (men and women) were employed as subjects, and the test was made in a constant temperature and humidity room having been adjusted at a temperature of 22° C. and a humidity of 45%. Each of the subjects was seated on an easy chair and allowed to take a rest for 30 minutes. Thereafter, a probe of the flow-meter was fitted to the inner surface side of the third finger of the right hand of the subject, and a change in blood circulation rate with the passage of time was recorded. One sequence of measurement tests was composed of (A) a rest for three minutes, (B) attaching of an odorless cotton piece under the nose for three minutes, (C) a rest for three minutes, (D) attaching of a test sample-impregnated cotton piece under the nose for three minutes, (E) a rest for three minutes, (F) attaching of an odorless cotton piece under the nose for three minutes, and (G) a rest for three minutes. The blood circulation rate was measured successively during the one sequence. […]

Row | Structure (SMILES) | skin temperatures of the fingers [1] | skin temperatures of the cheeks [1] | skin temperatures of the toes [1] | sympathetic nerve suppressing effect (sympathetic nerve) | rate of the skin blood circulation (summary of findings) [2]
1 | CCCCC1OC(=O)CC1C (stereo not shown) [3-methyloctano-4-lactone] | increased | could be increased | could be increased | has a sympathetic nerve suppressing effect | increases
2 | CC(=O)OC1CC2CCC1(C)C2(C)C (stereo not shown) [bornyl acetate] | increased | could be increased | could be increased | has a sympathetic nerve suppressing effect | increases
